Data as given in article PMC8708252, “Silymarin Dehydroflavonolignans Chelate Zinc and Partially Inhibit Alcohol Dehydrogenase” (Nutrients, 2021).

Columns and labels:
Type in all cases: biochemical
[1] = target: T1, bovine glutamate dehydrogenase type I (GDH) (Bos taurus, UniProt P00366); experiment: NADH absorbance ([…] nm) assay with and without […] zinc
T1 construct: gene GLUD1

[2] = target: T2, equine alcohol dehydrogenase (ADH) (Equus caballus, UniProt P00327); experiment: NADH absorbance ([…] nm) ethanol oxidation assay with recombinant enzyme
T2 construct: recombinant equine ADH
T2 sequence (P00327 2-375): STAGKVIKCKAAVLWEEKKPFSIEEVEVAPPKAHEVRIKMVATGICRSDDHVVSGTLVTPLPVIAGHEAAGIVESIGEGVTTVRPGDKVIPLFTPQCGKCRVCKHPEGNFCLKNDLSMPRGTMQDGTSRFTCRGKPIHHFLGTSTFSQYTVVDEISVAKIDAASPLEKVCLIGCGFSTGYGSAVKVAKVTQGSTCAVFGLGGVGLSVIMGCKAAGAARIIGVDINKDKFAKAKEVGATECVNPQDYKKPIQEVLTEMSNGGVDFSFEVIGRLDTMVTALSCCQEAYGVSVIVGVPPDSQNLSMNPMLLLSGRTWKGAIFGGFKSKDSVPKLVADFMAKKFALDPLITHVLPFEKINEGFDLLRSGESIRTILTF

[3] = target: T2, equine alcohol dehydrogenase (ADH); experiment: as above; remark: listed apart in the source
[4] = target: T3, yeast alcohol dehydrogenase (ADH) (Saccharomyces cerevisiae, UniProt P00330); experiment: NADH absorbance ([…] nm) ethanol oxidation assay with isolated enzyme
T3 construct: gene ADH1
T3 sequence (P00330 2-348): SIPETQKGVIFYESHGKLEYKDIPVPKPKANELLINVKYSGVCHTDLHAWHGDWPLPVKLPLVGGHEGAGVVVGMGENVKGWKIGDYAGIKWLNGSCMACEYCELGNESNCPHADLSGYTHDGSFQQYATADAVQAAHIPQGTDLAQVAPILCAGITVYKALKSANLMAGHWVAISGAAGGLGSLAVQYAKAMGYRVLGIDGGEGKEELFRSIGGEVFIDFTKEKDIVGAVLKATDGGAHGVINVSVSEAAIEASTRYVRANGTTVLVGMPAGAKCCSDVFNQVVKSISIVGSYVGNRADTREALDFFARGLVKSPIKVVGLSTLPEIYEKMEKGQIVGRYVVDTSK

[5] = target: T2, equine alcohol dehydrogenase (ADH); experiment: NADH absorbance ([…] nm) ethanol oxidation assay with recombinant enzyme; remark: listed apart in the source

T1 sequence (P00366 58-558): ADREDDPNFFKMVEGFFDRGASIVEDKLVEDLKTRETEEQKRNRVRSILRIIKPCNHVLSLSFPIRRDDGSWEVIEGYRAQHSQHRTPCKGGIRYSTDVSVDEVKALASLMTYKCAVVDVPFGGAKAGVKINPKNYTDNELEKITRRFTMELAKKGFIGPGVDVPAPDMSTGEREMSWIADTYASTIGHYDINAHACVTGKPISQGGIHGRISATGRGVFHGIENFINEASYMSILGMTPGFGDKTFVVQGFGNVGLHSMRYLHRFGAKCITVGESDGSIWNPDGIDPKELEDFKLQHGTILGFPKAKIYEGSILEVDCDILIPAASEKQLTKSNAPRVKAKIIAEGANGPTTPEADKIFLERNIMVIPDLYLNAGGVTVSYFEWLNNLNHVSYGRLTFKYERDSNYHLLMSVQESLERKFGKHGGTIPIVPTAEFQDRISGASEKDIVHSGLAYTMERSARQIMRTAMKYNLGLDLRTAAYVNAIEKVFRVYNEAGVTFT

`COc1cc(C2Oc3cc(-c4oc5cc(O)cc(O)c5c(=O)c4O)ccc3OC2CO)ccc1O` (racemic) [DHS, 2,3-dehydrosilybin] was tested, and the “NADH absorbance (340 nm) assay with and without 150 μM zinc” value [1] was “they were particularly potent inhibitors of the enzyme itself”.

For `COc1cc([C@H]2Oc3cc(-c4oc5cc(O)cc(O)c5c(=O)c4O)ccc3O[C@@H]2CO)ccc1O` [DHS-A, 2,3-dehydrosilybin A], the inhibition at 10 µM [2] was ~20%.

In the case of `COc1cc([C@@H]2Oc3cc(-c4oc5cc(O)cc(O)c5c(=O)c4O)ccc3O[C@H]2CO)ccc1O` [DHS-B, 2,3-dehydrosilybin B], the “NADH absorbance (340 nm) ethanol oxidation assay with recombinant enzyme” value [3] is reported as “Inhibition of equine ADH by active flavonolignans”.

For `Cc1cn[nH]c1` [fomepizole], the IC50 [4] was 14 mM and the IC50 [5] was 0.00525 mM.
